Some results are limits rather than exact numbers.

P70S6K (T412E mutant), sequence (P23443 whole entry T412E): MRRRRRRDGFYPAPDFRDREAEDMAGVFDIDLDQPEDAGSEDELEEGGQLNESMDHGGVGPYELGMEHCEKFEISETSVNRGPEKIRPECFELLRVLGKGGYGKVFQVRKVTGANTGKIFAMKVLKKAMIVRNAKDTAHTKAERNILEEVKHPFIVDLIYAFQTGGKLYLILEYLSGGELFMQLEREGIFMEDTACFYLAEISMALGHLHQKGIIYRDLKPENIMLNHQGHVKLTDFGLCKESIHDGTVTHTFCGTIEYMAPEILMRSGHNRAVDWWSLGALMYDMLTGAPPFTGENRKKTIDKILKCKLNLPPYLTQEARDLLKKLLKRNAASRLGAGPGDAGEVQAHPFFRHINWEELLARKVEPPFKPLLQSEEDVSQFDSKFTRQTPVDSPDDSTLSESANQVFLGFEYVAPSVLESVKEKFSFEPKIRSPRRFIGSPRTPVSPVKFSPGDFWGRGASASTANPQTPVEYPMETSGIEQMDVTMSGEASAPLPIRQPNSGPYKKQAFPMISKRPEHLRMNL

This test addresses P70S6K (T412E mutant) (Homo sapiens (Human), UniProt P23443, T412E). Briefly: P70S6K enzyme assay. The settings on record: 3 nM P70S6K T412E mutant, 24 μM ATP, 1 μM FITC-AHA-AKRRRLSSLRA-OH substrate peptide, 90 min at 25° C. It is filed as biochemical. The gist of the method:
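P70S6K T412E mutant (3 nM) with 24 μM ATP and 1 μM FITC-labelled S6-derived peptide in Hepes pH 7.5, MgCl2, DTT, Brij buffer; 90 min at 25° C, stopped with EDTA. Phosphorylated product and substrate peptides separated by microfluidic mobility shift; IC50 values derived.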
`Cc1ccc([C@H](CCO)NC(=O)C2(N)CCN(c3ncnc(N)c3C(N)=O)CC2)cc1` [Example 232, 4-Amino-6-[4-amino-4-((S)-3-hydroxy-1-p-tolyl-propylcarbamoyl)-piperidin-1-yl]-pyrimidine-5-carboxylic acid amide] gave a 50% inhibitory concentration (IC50) of 23000 nM.

In turn, `Nc1ncnc(N2CCN([C@H](CN3CCC3)c3cccc(F)c3)CC2)c1-c1ccc(F)cc1` [Example 102, 6-{4-[(S)-2-Azetidin-1-yl-1-(3-fluoro-phenyl)-ethyl]-piperazin-1-yl}-5-(4-fluoro-phenyl)-pyrimidin-4-ylamine] came in with an IC50 of 1400 nM. This IC50 lies about 16-fold lower than the previous one.

As to `Nc1ncnc(N2CCC(N)(CNC(=O)c3ccc(F)cc3F)C2)c1Br` (stereo not drawn) [Example 195, N-[3-Amino-1-(6-amino-5-bromo-pyrimidin-4-yl)-pyrrolidin-3-ylmethyl]-2,4-difluoro-benzamide], the IC50 came to 3.3 nM.

Regarding `CCc1c(N)ncnc1N1CCN(C(CN)c2ccc3c(c2)OCCO3)CC1` (stereo not drawn) [Example 181, 6-{4-[2-Amino-1-(2,3-dihydro-benzo[1,4]dioxin-6-yl)-ethyl]-piperazin-1-yl}-5-ethyl-pyrimidin-4-ylamine], it took 180 nM to reach half-maximal inhibition (IC50).

In the case of `Cc1ccc([C@H](CCO)NC(=O)C2(N)CCN(c3ncnc(N)c3Cl)CC2)cc1` [Example 237, 4-Amino-1-(6-amino-5-chloro-pyrimidin-4-yl)-piperidine-4-carboxylic acid ((S)-3-hydroxy-1-p-tolyl-propyl)-amide], the 50% inhibitory concentration (IC50) was determined as 860 nM.

On to `N#Cc1cccc([C@@H](CN2CCC2)N2CCN(c3ncnc(N)c3-c3ccc(F)cc3)CC2)c1` [Example 125, 3-((S)-1-{4-[6-Amino-5-(4-fluoro-phenyl)-pyrimidin-4-yl]-piperazin-1-yl}-2-azetidin-1-yl-ethyl)-benzonitrile], for which the IC50 was 1200 nM.

Regarding `Nc1ncnc(N2CCN(C(CN3CCC3)c3ccc(C(F)(F)F)cc3)CC2)c1-c1ccc(F)cc1` (stereo not drawn) [Example 27, 6-(4-(2-(azetidin-1-yl)-1-(4-(trifluoromethyl)phenyl)ethyl)piperazin-1-yl)-5-(4-fluorophenyl)pyrimidin-4-amine], the 50% inhibitory concentration (IC50) was 4.2 nM.

Regarding `Nc1cc(N2CCN(C(CN3CCCCC3)c3ccc(F)cc3)CC2)ncn1` (stereo not drawn) [Example 79, 6-{4-[1-(4-fluoro-phenyl)-2-piperidin-1-yl-ethyl]-piperazin-1-yl}-pyrimidin-4-ylamine], the IC50 is over 1000 nM.

`N#Cc1c(N)ncnc1N1CCC(N)(C(=O)N[C@@H](CCO)c2ccc(C(F)(F)F)cc2)CC1` [Example 230, 4-Amino-1-(6-amino-5-cyano-pyrimidin-4-yl)-piperidine-4-carboxylic acid [(S)-3-hydroxy-1-(4-trifluoromethyl-phenyl)-propyl]-amide] gave an IC50 of 18000 nM.

With `Nc1cc(N2CCN(C(CN3CCCCC3)c3cccc(C(F)(F)F)c3)CC2)ncn1` (stereo not drawn) [Example 71, 6-{4-[1-(3-trifluoromethyl-phenyl)-2-piperidin-1-yl-ethyl]-piperazin-1-yl}-pyrimidin-4-ylamine], the IC50 was over 1000 nM.

The compound `NC[C@H](c1ccc(C(F)(F)F)cc1)N1CCN(c2ncnc(N)c2-c2cn[nH]c2)CC1` [Example 8, (S)-6-(4-(2-amino-1-(4-(trifluoromethyl)phenyl)ethyl)piperazin-1-yl)-5-(1H-pyrazol-4-yl)pyrimidin-4-amine] yielded an IC50 of 3.4 nM.

Compound `Nc1ncnc(N2CCN(C(CN3CCCC3)c3cccc(C(F)(F)F)c3)CC2)c1-c1ccc(F)cc1` (stereo not drawn) [Example 66, 5-(4-Fluorophenyl)-6{4-[1-(3-trifluoromethyl-phenyl)-2-pyrrolidin-1-yl-ethyl]-piperazin-1-yl}-pyrimidin-4-ylamine] had an IC50 of 82 nM.

In the case of `NCC(c1ccc(C(F)(F)F)cc1)C1CCN(c2ncnc(N)c2-c2ccc(F)cc2)CC1` (stereo not drawn) [Example 52, 6-{4-[2-Amino-1-(4-trifluoromethyl-phenyl)-ethyl]-piperidin-1-yl}-5-(4-fluoro-phenyl)-pyrimidin-4-ylamine], half-maximal inhibition (IC50) was put at 3.3 nM.

Regarding `Nc1ncnc(N2CCN(C(CN3CCC3)c3cccc(F)c3F)CC2)c1-c1cn[nH]c1` (stereo not drawn) [Example 124, 6-{4-[2-Azetidin-1-yl-1-(2,3-difluoro-phenyl)-ethyl]-piperazin-1-yl}-5-(1H-pyrazol-4-yl)-pyrimidin-4-ylamine], the IC50 came out at 3400 nM. Against the preceding compound, the IC50 is about 1000-fold higher.

Compound `N#Cc1cccc([C@H](CN2CCC2)N2CCN(c3ncnc(N)c3-c3cn[nH]c3)CC2)c1` [Example 91, 3-((R)-1-{4-[6-Amino-5-(1H-pyrazol-4-yl)-pyrimidin-4-yl]-piperazin-1-yl}-2-azetidin-1-yl-ethyl)-benzonitrile] yielded an IC50 of 6300 nM.

In the case of `N#Cc1ccc(-c2c(N)ncnc2N2CCC(N)(CNC(=O)c3ccc(F)cc3F)C2)cc1` (stereo not drawn) [Example 199, N-{3-Amino-1-[6-amino-5-(4-cyano-phenyl)-pyrimidin-4-yl]-pyrrolidin-3-ylmethyl}-2,4-difluoro-benzamide], the 50% inhibitory concentration (IC50) was found to be 11 nM.

As for `Nc1cc(N2CCN(C(CN3CCCC3)c3ccc(F)cc3)CC2)ncn1` (stereo not drawn) [Example 78, 6-{4-[1-(4-fluorophenyl)-2-pyrrolidin-1-yl-ethyl]-piperazin-1-yl}-pyrimidin-4-ylamine], the IC50 is over 1000 nM.

For the compound `Nc1ncnc(N2CCN(C(CN3CCC3)c3cccc(C(F)(F)F)c3F)CC2)c1-c1cn[nH]c1` (stereo not drawn) [Example 99, 6-{4-[2-Azetidin-1-yl-1-(2-fluoro-3-trifluoromethyl-phenyl)-ethyl]-piperazin-1-yl}-5-(1H-pyrazol-4-yl)-pyrimidin-4-ylamine], the IC50 amounted to 670 nM.

In turn, `NC[C@@H](c1ccc(C(F)(F)F)cc1)C1CCN(c2ncnc(N)c2-c2ccc(F)cc2)CC1` [Example 54, 6-{4-[(R)-2-Amino-1-(4-trifluoromethyl-phenyl)-ethyl]-piperidin-1-yl}-5-(4-fluoro-phenyl)-pyrimidin-4-ylamine] registered an IC50 of 4.5 nM. This IC50 is about 150-fold lower than that of the compound before.

In the case of `Nc1ncnc(N2CCC(Cc3ccc(C(F)(F)F)cc3)CC2)c1-c1ccc(F)cc1` [Example 48, 5-(4-Fluorophenyl)-6{4-(4-trifluoromethylbenzyl)-piperidin-1-yl}pyrimidin-4-amine], half-maximal inhibition (IC50) required 66 nM.

In turn, `CN(C)CC(c1ccc(C(F)(F)F)cc1)N1CCN(c2ncnc(N)c2C2CC2)CC1` (stereo not drawn) [Example 28, 5-Cyclopropyl-6-(4-(2-(dimethylamino)-1-(4-(trifluoromethyl)phenyl)ethyl)piperazin-1-yl)pyrimidin-4-amine] returned an IC50 of 260 nM. Against the preceding compound, the IC50 is about 3.9-fold higher.

Regarding `CS(=O)(=O)c1ccc(C(CN2CCC2)N2CCN(c3ncnc(N)c3-c3ccc(F)cc3)CC2)cc1` (stereo not drawn) [Example 128, 6-{4-[2-Azetidin-1-yl-1-(4-methanesulfonyl-phenyl)-ethyl]-piperazin-1-yl}-5-(4-fluoro-phenyl)-pyrimidin-4-ylamine], it took 280 nM to reach half-maximal inhibition (IC50).

Compound `NCC(c1cccc(C(F)(F)F)c1)N1CCN(c2ncnc(N)c2-c2ccc(F)cc2)CC1` (stereo not drawn) [Example 153, 6-{4-[2-Amino-1-(3-trifluoromethyl-phenyl)-ethyl]-piperazin-1-yl}-5-(4-fluoro-phenyl)-pyrimidin-4-ylamine] displayed an IC50 of 11 nM. Compared with the last compound, the IC50 is about 25-fold lower.

On to `CCn1cc(-c2c(N)ncnc2N2CCN(C(CN)c3ccc(C(F)(F)F)cc3)CC2)cn1` (stereo not drawn) [Example 39, 6-(4-(2-amino-1-(4-(trifluoromethyl)phenyl)ethyl)piperazin-1-yl)-5-(1-ethyl-1H-pyrazol-4-yl)pyrimidin-4-amine], for which the IC50 is 12 nM. This IC50 and that of the compound before are within 1.5-fold of each other.

For `Nc1ncnc(N2CCN(Cc3ccc(C(F)(F)F)cc3)CC2)c1-c1ccc(F)cc1` [Example 13, 5-(4-Fluoro-phenyl)-6-[4-(4-trifluoromethyl-benzyl)-piperazin-1-yl]-pyrimidin-4-ylamine], the IC50 is 7.2 nM.

The compound `NCC(c1ccc(C(F)(F)F)cc1)N1CCN(c2ncnc(N)c2OCc2ccccc2)CC1` (stereo not drawn) [Example 34, 6-(4-(2-amino-1-(4-(trifluoromethyl)phenyl)ethyl)piperazin-1-yl)-5-(benzyloxy)pyrimidin-4-amine] yielded an IC50 of 57 nM.

Compound `Cc1cc(C(CN2CCC2)N2CCN(c3ncnc(N)c3-c3cn[nH]c3)CC2)ccc1Cl` (stereo not drawn) [Example 109, 6-{4-[2-Azetidin-1-yl-1-(4-chloro-3-methyl-phenyl)-ethyl]-piperazin-1-yl}-5-(1H-pyrazol-4-yl)-pyrimidin-4-ylamine] displayed an IC50 of 1900 nM.

As to `CC[C@H](NC(=O)C1(N)CCN(c2ncnc(N)c2C(N)=O)CC1)c1ccc(Cl)cc1` [Example 245, 4-Amino-6-{4-amino-4-[(S)-1-(4-chloro-phenyl)-propylcarbamoyl]-piperidin-1-yl}-pyrimidine-5-carboxylic acid amide], the IC50 was 2400 nM.

On to `N#CC(c1ccc(Cl)nc1)N1CCN(c2ncnc(N)c2-c2ccc(F)cc2)CC1` (stereo not drawn) [Example 173, {4-[6-Amino-5-(4-fluoro-phenyl)-pyrimidin-4-yl]-piperazin-1-yl}-(6-chloro-pyridin-3-yl)-acetonitrile], for which half-maximal inhibition (IC50) required 110 nM.

`NC[C@H](c1ccc(C(F)(F)F)cc1)N1CCN(c2ncnc(N)c2-c2ccc(F)cc2)CC1` [Example 3, 6-{4-[(S)-2-Amino-1-(4-trifluoromethyl-phenyl)-ethyl]-piperazin-1-yl}-5-(4-fluoro-phenyl)-pyrimidin-4-ylamine]: the midpoint of inhibition, the IC50, lay at 2.6 nM.

As to `Nc1cc(N2CCN(C(CN3CCCCC3)c3cccc(F)c3)CC2)ncn1` (stereo not drawn) [Example 76, 6-{4-[1-(3-fluorophenyl)-2-piperidin-1-yl-ethyl]-piperazin-1-yl}-pyrimidin-4-ylamine], the half-maximal inhibitory concentration (IC50) is over 1000 nM.

In the case of `NCC(c1ccc(OC(F)(F)F)cc1)N1CCN(c2ncnc(N)c2-c2cn[nH]c2)CC1` (stereo not drawn) [Example 186, 6-(4-(2-amino-1-(4-(trifluoromethoxy)phenyl)ethyl)piperazin-1-yl)-5-(1H-pyrazol-4-yl)pyrimidin-4-amine], the IC50 was determined as 1.4 nM.

`NCC(c1ccc(C(F)(F)F)cc1)N1CCN(c2ncnc(N)c2C2=CCCCC2)CC1` (stereo not drawn) [Example 24, 6-(4-(2-amino-1-(4-(trifluoromethyl)phenyl)ethyl)piperazin-1-yl)-5-(cyclohex-1-en-1-yl)pyrimidin-4-amine] displayed an IC50 of 5.3 nM.

The record behind these values is patent US9321760B2 (Merck Patent GmbH, priority 2011, dated 2016).
